Source: US20040024055A1, “Pharmaceutical composition containing the exract of saururus chinensis baill useful as an anticancer agent and a process for the preparation thereof” (priority 2000, published 2004)

Experiments:
[1] = Anticancer activity of sauristolactam separated from saururus; settings: separated from saururus and crystallized
[2] = tested on: cell line treated as in Experimental Example 1; assay: LDH analysis of remaining cell after NO detection; format: cell-based; settings: 1% Triton treatment
Source text: The remaining cell after NO detection was identified as dead by measuring existence rate and necrosis rate through MTT analysis and LDH analysis.

Row | Compound | anticancer activity [1] | LDH Analysis (necrosis rate) [2] [%]
1 | COc1c(O)cc2c3c(cc4ccccc4c13)N(C)C2=O [sauristolactam] | no anticancer activity was detected | 
2 | Triton X-100 |  | 100
